Assay results reported in paper PMC7835237, “Dual mechanism β-amino acid polymers promoting cell adhesion” (Nature Communications, 2021).

Tests used:
[1] = tested on: MC3T3-E1 preosteoblast cells; test: Integrin αvβ3 to block RGD, cell adhesion; assay type: cell-based, mouse; parameters: unit not given here; settings: for Cell density (figure 5g) / Cell spreading area (figure 5f): - αvβ3: serum-incubated surface without integrin αvβ3, 2 h after seeding; for Supplementary Figure8, cell adhesion on modified surface: - αvβ3
Protocol: An aliquot of 10 μL α-MEM medium containing 10% FBS was added to each well (formed by a 50-well coverslip on the top of a glass slide) and the slide was incubated in a humidified atmosphere at 37 °C for 2 h[24]. The slide was washed with PBS and incubated with integrin αvβ3 (10 µg/mL in PBS) at 37 °C for 1 h. Then cells at a concentration of 1.5 × 10^5 cells/mL in a serum-free medium were added to each individual well, having bottom surface modified with DM50CO50 or RGD peptide. After the slide was incubated at 37 °C for 2 h, cells in each well were stained with a live/dead staining solution and the fluorescent images were captured under a microscope (Nikon Eclipse Ti-S, Japan) at eight different locations in each well. The collected images were analyzed using the Image-pro plus software.

[2] = tested on: MC3T3-E1 preosteoblast cells; test: Cell spreading area on modified surfaces (immunofluorescence analysis of cell morphology); assay type: cell-based, mouse
Protocol: The degree of cell spreading on a functionalized glass slide was measured by immunofluorescence analysis. After culture medium was removed, the slide was washed with PBS and then cells on the slide were fixed with 4% paraformaldehyde for 20 min. The slide was washed with PBS thrice and incubated for 5 min with 0.4% triton-X in PBS. Subsequently, the slide was washed with PBS thrice, followed by blocking with 3% bovine serum albumin (BSA) in PBS for 1 h at rt and then incubated with Alexa Fluor-555-conjugated anti-vinculin antibody (1:300 in PBS) overnight at 4 °C. The slide was washed with PBS thrice and incubated for 2 h with FITC-phalloidin (1:200 in PBS) and 4′-6-diamidino-2-phenylindole (DAPI) (5 μg/mL) for 10 min. The slide was washed with PBS thrice and its fluorescent images were collected on a confocal microscope (Nikon A1R, Japan).

[3] = Water contact angle of modified surfaces; assay type: physicochemical; settings: modified glass surface, Millipore water drops
Protocol: The water contact angles of bare glass, OEG8, RGD, and DM50CO50-modified surfaces were measured with a contact angle meter (JC2000D2) from Shanghai Zhongchen Digital Technology Apparatus Co., Ltd. Liquid drops (Millipore water) were delivered to the surface using a microsyringe.

Water contact angle [3]: 41 °
Substance: RGDSPC [cell adhesion gold standard RGD peptide (RGDSPC), attached to surface]
Cell density (figure 5g) ([1]; value 1 of n = 9): 80
Cell spreading area (figure 5f) ([1]; value 1 of n = 9): 3308.7
Cell density (figure 5g) ([1]; value 2 of n = 9): 69
Cell spreading area (figure 5f) ([1]; value 2 of n = 9): 3551.3
Cell density (figure 5g) ([1]; value 3 of n = 9): 74
Cell spreading area (figure 5f) ([1]; value 3 of n = 9): 2958.5
Cell density (figure 5g) ([1]; value 4 of n = 9): 75
Cell spreading area (figure 5f) ([1]; value 4 of n = 9): 3300.7
Cell density (figure 5g) ([1]; value 5 of n = 9): 69
Cell spreading area (figure 5f) ([1]; value 5 of n = 9): 3020
Cell density (figure 5g) ([1]; value 6 of n = 9): 79
Cell spreading area (figure 5f) ([1]; value 6 of n = 9): 2866.3
Cell density (figure 5g) ([1]; value 7 of n = 9): 74
Cell spreading area (figure 5f) ([1]; value 7 of n = 9): 2910.3
Cell density (figure 5g) ([1]; value 8 of n = 9): 73
Cell spreading area (figure 5f) ([1]; value 8 of n = 9): 3174.3
Cell density (figure 5g) ([1]; value 9 of n = 9): 70
Cell spreading area (figure 5f) ([1]; value 9 of n = 9): 3494.7
Supplementary Figure8, cell adhesion on modified surface ([1]; replicate 1): 0.61
Supplementary Figure8, cell adhesion on modified surface ([1]; replicate 2): 0.2888
Supplementary Figure8, cell adhesion on modified surface ([1]; replicate 3): 0.3748
Cell area of preosteoblast cells ([2]; cultured on modified surface for 3 h, replicate 1): 3956
Cell area of preosteoblast cells ([2]; cultured on modified surface for 3 h, replicate 2): 3895
Cell area of preosteoblast cells ([2]; cultured on modified surface for 3 h, replicate 3): 3549
Cell area of preosteoblast cells ([2]; cultured on modified surface for 24 h, replicate 1): 4800
Cell area of preosteoblast cells ([2]; cultured on modified surface for 24 h, replicate 2): 4752
Cell area of preosteoblast cells ([2]; cultured on modified surface for 24 h, replicate 3): 4625
